Assays:
WT C57Bl6/N mice = assay: open field locomotor activity time-course in mice; format: in vivo; conditions: for duration of locomotor / psychomotor effects: open field time-course, i.p.; for potency, cumulative distance traveled over 60 min post i.p. injection: compared with MPH, cocaine, R-αPVP, R-MDPV and R-pyrovalerone
DAT [1] = target: T1, DAT (Homo sapiens, UniProt Q01959); assay: saturation of [3H]DA uptake in presence of inhibitor; format: cell-based; conditions: 1 min uptake; cocaine and R-αPVP 250, 500, 1,000 nM; S-αPVP 5, 10, 20 nM
T1 sequence (Q01959 whole entry): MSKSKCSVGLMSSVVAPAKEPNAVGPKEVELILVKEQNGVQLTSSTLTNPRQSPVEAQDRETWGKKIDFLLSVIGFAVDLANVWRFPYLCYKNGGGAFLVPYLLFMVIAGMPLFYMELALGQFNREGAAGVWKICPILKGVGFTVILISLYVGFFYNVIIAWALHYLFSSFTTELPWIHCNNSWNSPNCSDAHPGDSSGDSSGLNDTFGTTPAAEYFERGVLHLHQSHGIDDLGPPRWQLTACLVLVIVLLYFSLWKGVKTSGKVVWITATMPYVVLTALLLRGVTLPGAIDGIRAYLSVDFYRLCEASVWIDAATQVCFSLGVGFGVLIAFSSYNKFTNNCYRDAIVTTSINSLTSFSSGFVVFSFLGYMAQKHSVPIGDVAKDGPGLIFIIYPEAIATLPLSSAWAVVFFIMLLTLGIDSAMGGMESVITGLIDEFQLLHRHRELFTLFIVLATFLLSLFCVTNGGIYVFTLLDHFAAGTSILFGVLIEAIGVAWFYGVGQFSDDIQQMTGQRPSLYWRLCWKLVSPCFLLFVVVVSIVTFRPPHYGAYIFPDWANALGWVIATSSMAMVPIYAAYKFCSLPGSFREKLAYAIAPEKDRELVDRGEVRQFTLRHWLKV

DAT [2] = target: T1, DAT; format: binding; conditions: DAT membranes
DAT [3] = target: T1, DAT; assay: electrophysiological examination of DAT-mediated currents; format: cell-based; conditions: HEK293 cells expressing DAT, whole-cell

Compound | duration of locomotor / psychomotor effects (WT C57Bl6/N mice) | other results
COC(=O)C(c1ccccc1)C1CCCCN1 (stereo not drawn) [MPH, methylphenidate] | much shorter duration of locomotor effects | 
CCCC(C(=O)c1ccc2c(c1)OCO2)N1CCCC1 (stereo not drawn) [R-MDPV, 3,4-methylenedioxypyrovalerone] | much shorter duration of locomotor effects | 
CCC[C@H](C(=O)c1ccc(C)cc1)N1CCCC1 [R-pyrovalerone, pyrovalerone] | much shorter duration of locomotor effects | 
CCCC(C(=O)c1ccc2c(c1)OCO2)N1CCCC1 (stereo not drawn) [S-MDPV, 3,4-methylenedioxypyrovalerone] | prolonged psychomotor effects | potency, cumulative distance traveled over 60 min post i.p. injection (WT C57Bl6/N mice): at least tenfold more potent
CCC[C@@H](C(=O)c1ccc(C)cc1)N1CCCC1 [S-pyrovalerone, pyrovalerone] | prolonged psychomotor effects | potency, cumulative distance traveled over 60 min post i.p. injection (WT C57Bl6/N mice): at least tenfold more potent
COC(=O)[C@H]1[C@@H](OC(=O)c2ccccc2)C[C@@H]2CC[C@H]1N2C [cocaine] | much shorter duration of locomotor effects | effect on Km of DA uptake (DAT [1]): increases Km in dose-dependent manner; effect on Vmax of DA uptake (DAT [1]): does not decrease Vmax; effect on dissociation rate of [3H]WIN35428 (DAT [2]): not affected
NCCc1ccc(O)c(O)c1 [dopamine] |  | DAT-mediated inward currents (substrate activity) (DAT [3]): robust inward currents

Source: publication PMC9963675 (Proceedings of the National Academy of Sciences of the …, 2023)
